{
  "source": "patent US20240173353A1",
  "about": "“UNIVERSAL CHIMERIC ANTIGEN RECEPTOR T-CELL AND APPLICATION THEREOF” (SHANGHAI IASO BIOTECHNOLOGY CO., LTD., priority 2021, published 2024)",
  "key": {"[1]": {"tested_on": "T cells", "assay": "T cell activation by anti-CD3/CD28 DynaBeads, CD25/CD69/4-1BB expression by flow cytometry", "text": "The inventors pre-treated T cells with dasatinib or DMSO for 5 hr, then activated T cells with anti-CD3/CD28 DynaBeads for 24 hr, and then detected the expression of activation molecules CD25, CD69 and 4-1BB by flow cytometry.\nIn order to verify the tolerance of the LCK-T316I mutation to the function of dasatinib, the inventors carried out experimental verification on the T cells with LCK edited with different sgRNA lengths prepared in Example 2.\nThe inventors isolated CD3-positive T cells from human peripheral blood and divided them into eleven portions for processing, with 1e5 cells in each portion. One of these portions was not treated with dasatinib, anti-CD3/CD28 DynaBeads were not added to activate TCR, and this portion was as the initial control group; the other 10 portions of cells were pretreated with different concentrations of dasatinib for 4 hr, ten concentrations ranging from 0 nM to 50 nM were set, and then anti-CD3/CD28 DynaBeads were added to activate TCR signals overnight. On the second day, the expression of CD25, CD69 and 4-1BB activation signals was detected, and the activation of TCR signals was detected. Two replicates were set for each group of experiments.\nThe inventors divided each of the three groups of edited cells into 6 sub-groups and cultured them in a flat-bottomed 96-well plate. Each sub-group contained two technical replicates, and each well contained 0.15×10^6 cells. […] Subsequently, the cells were cultured for 18 hr. The activated T cell surface marker molecule 4-1BB was detected by using the APC-labeled murine IgG monoclonal antibody, and the activated T cell surface marker molecule CD25 was detected by using the PE-labeled murine IgG monoclonal antibody, and the activated T cell surface marker CD69 was detected by FITC-labeled murine IgG monoclonal antibody.\nThe inventors conducted research using two groups of T cells (CBE3 control group and Km edited group) in the above experiments. The experimental procedure is basically the same as the above-mentioned experiment (FIG. 32B). The two groups of edited cells were each divided into 7 sub-groups and cultured them in a flat-bottomed 96-well plate. Each sub-group contained two technical replicates, and each well contained 0.15×10^6 cells. […] Subsequently, the cells were cultured for 18 hr. The activated T cell surface marker molecule 4-1BB was detected by using the APC-labeled murine IgG monoclonal antibody, and the activated T cell surface marker molecule CD25 was detected by using the PE-labeled murine IgG monoclonal antibody, and the activated T cell surface marker CD69 was detected by FITC-labeled murine IgG monoclonal antibody."}, "[2]": {"tested_on": "NK cells", "assay": "CD107a release of NK cells activated by K562", "assay_type": "cell-based, human", "experimental": "The inventor used Miltenyi human NK sorting magnetic beads to separate NK cells from human peripheral blood, and used DAKEWE NK medium to culture and expand them in vitro. On Day 8, a population of NK cells with more than 95% having positive CD56 expression could be obtained. These NK cells were taken out and treated with 0 nM, 100 nM and 200 nM dasatinib respectively for 24 hr, and then divided into two groups, one of which was not activated, and the other group was stimulated with MHC-class I molecule-deficient K562 cells for 5 hr. Then, the CD107a release of NK cells were detected in both of them.\nThe inventors isolated NK cells from human PBMCs, and then cultured and differentiated them in NK medium to obtain CD56-positive NK cells with a purity higher than 95%. The exploration of the threshold of NK activation with dasatinib was carried out with seven concentrations in the range of 0-50 nM, namely 0, 10, 20, 25, 30, 40 and 50 nM, and the treatment was carried out overnight. The next day, the cells were resuspended with NK medium and activated with K562. Lymphocyte activator was used as a positive control for activation, and a part of NK cells that were not activated by K562 were also kept. Two replicates were set for each group. anti-CD107a antibody and monensin were added while carrying out activation, and after co-incubation for 6 hr, the CD107a release of CD56-positive NK cells was detected by flow cytometry.\nThe inventors isolated NK cells from human PBMCs, and then cultured and differentiated them in NK medium to obtain CD56-positive NK cells with a purity higher than 95%. Three pretreatments were done respectively (1) absence of dasatinib pretreatment; (2) pretreatment with […] pretreatment with 50 nM dasatinib, and the cells were cultured overnight. The next day, the concentration of dasatinib was reduced, and the concentration was adjusted to 0, 7.5, 12.5, 17.5 and 25 nM respectively. […] Two replicates were set for each group.\nIn order to repeatedly verify that the inhibition of NK cell activation function by dasatinib has an extended effect, the inventors repeated the above experiment. […] After 4 hr of co-incubation, CD107a release from CD56 positive NK cells was detected.\nThe inventors used CD3-negative cells in human PBMCs, which contained more than 5% of CD56-positive NK cells. […] The next day, the cells were resuspended with NK medium and activated with K562. Lymphocyte activator was used as a positive control for activation, and a part of NK cells that were not activated by K562 were also kept. Two replicates were set for each group. anti-CD107a antibody and monensin were added while carrying out activation, and after co-incubation for 6 hr, the CD107a release of CD56-positive NK cells was detected by flow cytometry.\nThe inventors isolated NK cells from human PBMCs, and then cultured and differentiated them in NK medium to obtain CD56-positive NK cells with a purity higher than 95%. […] Two replicates were set for each group."}, "[3]": {"tested_on": "CD19-UCART cells", "assay": "CD107a release of CD19-UCART co-incubated with Raji, dynamic ponatinib concentration", "assay_type": "cell-based, human", "experimental": "In this example, the inventors used the prepared CD19-UCART and Km-edited CD19-UCART cells in the experiments. […] The next day, the concentration was adjusted to 0, 50, 100 and 200 nM in the group of 200 nM pretreatment overnight, and the concentration was adjusted to 0, 100, 200 nM and 300 nM in the group of 500 nM pretreatment overnight. […] Two technical replicates were set for each group. After 4 hr of co-incubation, CD107a release in CD8 and CAR double-positive cells was detected."}, "[4]": {"tested_on": "anti-BCMA-CAR-T cells", "assay": "CD107a translocation of anti-BCMA-CAR-T cells co-incubated with target cells", "assay_type": "cell-based, human", "settings": "wild-type anti-BCMA CAR-T, adjusted to 0 nM"}, "[5]": {"settings": "CBE3 control group, 200 nM ponatinib"}, "[6]": {"settings": "Km edited group, 500 nM ponatinib"}, "[7]": {"settings": "Km group (30% T316I), 200 nM ponatinib"}, "[8]": {"settings": "Sg12 control group, 200 nM ponatinib"}, "[9]": {"settings": "second experiment, Km group, 200 nM ponatinib"}},
  "data": [
    {"smiles": "Cc1ccc(C(=O)Nc2ccc(CN3CCN(C)CC3)c(C(F)(F)F)c2)cc1C#Cc1cnc2cccnn12", "note": "[ponatinib]", "values": [
      {"measurement": "number of cells (survival of T cells)", "setting": "[1]; 1000 nM ponatinib", "result": "significantly reduced"},
      {"measurement": "CD25 and 4-1BB double-positive cells", "setting": "[1]; [5]", "result": 1.00, "unit": "%"},
      {"measurement": "CD25 and CD69 double-positive cells", "setting": "[1]; [5]", "result": 5.59, "unit": "%"},
      {"measurement": "CD25 and 4-1BB double-positive cells", "setting": "[1]; [6]", "result": 2.42, "unit": "%"},
      {"measurement": "CD25 and CD69 double-positive cells", "setting": "[1]; [6]", "result": 6.75, "unit": "%"},
      {"measurement": "CD25 and 4-1BB double-positive cells", "setting": "[1]; [7]", "result": 24.1, "unit": "%"},
      {"measurement": "CD25 and CD69 double-positive cells", "setting": "[1]; [7]", "result": 17.7, "unit": "%"},
      {"measurement": "CD25 and 4-1BB double-positive cells", "setting": "[1]; [8]", "result": 1.85, "unit": "%"},
      {"measurement": "CD25 and CD69 double-positive cells", "setting": "[1]; [8]", "result": 5.31, "unit": "%"},
      {"measurement": "concentration that effectively inhibits activation of T cells", "setting": "[1]; in vitro", "result": 200, "unit": "nM"},
      {"measurement": "cells expressing CD25 and 4-1BB", "setting": "[1]; [9]", "result": 19.71, "unit": "%"},
      {"measurement": "cells expressing CD25 and CD69", "setting": "[1]; [9]", "result": 23.9, "unit": "%"},
      {"measurement": "release of CD107a", "setting": "[2]; NK cells, highest ponatinib pretreatment (200 nM), lowered to 0 nM, K562", "result": "above 38%"},
      {"measurement": "concentration that effectively inhibits NK cell activation in vitro", "setting": "[2]; ponatinib", "result": 200, "unit": "nM"},
      {"measurement": "concentration that shuts down activation of CD19-UCART with LCK-T316I mutation", "setting": "[3]", "result": 500, "unit": "nM"},
      {"measurement": "percentage of CD107a-positive cells", "setting": "[3]; CD19-UCART group, 200 nM pretreatment overnight, adjusted to 0 nM, Raji 4 hr", "result": 17.2, "unit": "%"},
      {"measurement": "percentage of CD107a-positive cells", "setting": "[3]; CD19-UCART group, 200 nM pretreatment, 50 nM", "result": 0.485, "unit": "%"},
      {"measurement": "percentage of CD107a-positive cells", "setting": "[3]; CD19-UCART group, 200 nM pretreatment, 200 nM, Raji 4 hr", "result": 0.735, "unit": "%"},
      {"measurement": "percentage of CD107a-positive cells", "setting": "[3]; CD19-UCART group, 500 nM pretreatment, 300 nM", "result": 0.495, "unit": "%"},
      {"measurement": "percentage of CD107a-positive cells", "setting": "[3]; CD19-UCART group, 500 nM pretreatment, adjusted to 0 nM", "result": 1.73, "unit": "%"},
      {"measurement": "percentage of CD107a-positive cells", "setting": "[3]; Km-edited CD19-UCART group, 200 nM pretreatment, 200 nM", "result": 5.12, "unit": "%"},
      {"measurement": "percentage of CD107a-positive cells", "setting": "[3]; Km-edited CD19-UCART group, 200 nM pretreatment, adjusted to 0 nM", "result": 16.6, "unit": "%"},
      {"measurement": "percentage of CD107a-positive cells", "setting": "[3]; Km-edited CD19-UCART group, 500 nM pretreatment, 300 nM", "result": 1.47, "unit": "%"},
      {"measurement": "percentage of CD107a-positive cells", "setting": "[3]; Km-edited CD19-UCART group, 500 nM pretreatment, adjusted to 0 nM", "result": 11.15, "unit": "%"},
      {"measurement": "percentage of CD107a positive cells", "setting": "[4]; 200 nM ponatinib pretreatment, RPMI-8226 4 hr", "result": "about 16%"},
      {"measurement": "percentage of CD107a positive cells", "setting": "[4]; 500 nM pretreatment", "result": "about 3%"}
    ]}
  ]
}
